Measurements reported in PubChem BioAssay AID330 (DTP/NCI, 2004).
Several values for one entry are separate records, joined by “and”; a condition that tells them apart may be missing. Equal entries are not always repeated. Toxic doses and inconclusive results are not listed. The calls were made as follows: active = survival T/C of 150% or more; inactive = T/C below 125% in these data.

Tested on: P388 leukemia ip, CD2F1 mice, survival T/C
Test: NCI In Vivo Anticancer Drug Screen. Data for tumor model P388 Leukemia (intraperitoneal) in CD2F1 (CDF1) mice
Details: endpoint: median survival time, higher = longer survival
Summary of the method: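 Mice carrying the transplanted tumor received test compound or vehicle. Survival was recorded in each group, and the value is the treated-group measurement divided by that of the vehicle-treated control group.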

[1] = dose: 50.0 mg/kg/injection, schedule: Q01DX005 (ip), vehicle: Klucel (hydroxypropylcellulose) (HPC)
[2] = dose: 100.0 mg/kg/injection, schedule: Q01DX005 (ip), vehicle: Klucel (hydroxypropylcellulose) (HPC)
[3] = dose: 200.0 mg/kg/injection, schedule: Q01DX005 (ip), vehicle: Klucel (hydroxypropylcellulose) (HPC)
[4] = dose: 60.0 mg/kg/injection, schedule: Q01DX005 (ip), vehicle: saline with Tween-80
[5] = dose: 120.0 mg/kg/injection, schedule: Q01DX005 (ip), vehicle: saline with Tween-80
[6] = dose: 240.0 mg/kg/injection, schedule: Q01DX005 (ip), vehicle: saline with Tween-80
[7] = dose: 50.0 mg/kg/injection, schedule: Q01DX009 (ip), vehicle: saline
[8] = dose: 100.0 mg/kg/injection, schedule: Q01DX009 (ip), vehicle: saline
[9] = dose: 50.0 mg/kg/injection, schedule: Q01DX005 (ip), vehicle: saline with Tween-80
[10] = dose: 100.0 mg/kg/injection, schedule: Q01DX005 (ip), vehicle: saline with Tween-80
[11] = dose: 200.0 mg/kg/injection, schedule: Q01DX005 (ip), vehicle: saline with Tween-80
[12] = dose: 100.0 mg/kg/injection, schedule: Q04DX003 (ip), vehicle: saline
[13] = dose: 200.0 mg/kg/injection, schedule: Q04DX003 (ip), vehicle: saline
[14] = dose: 50.0 mg/kg/injection, schedule: Q04DX003 (ip), vehicle: saline

Measured: T/C

CC(=O)N/N=C1\CCC2CCC1C2 (configuration not stated)
inactive: [1] 100 % of control | [2] 99 % of control | [3] 96 % of control

Nc1ccc2nc3ccc(=O)cc-3n(-c3ccccc3)c2c1
inactive: dose: 0.5 mg/kg/injection, schedule: Q01DX009 (ip), vehicle: saline 115 % of control | dose: 1.0 mg/kg/injection, schedule: Q01DX009 (ip), vehicle: saline 124 % of control | dose: 1.25 mg/kg/injection, schedule: Q01DX009 (ip), vehicle: saline 102 % of control | dose: 2.5 mg/kg/injection, schedule: Q01DX009 (ip), vehicle: saline 104 % of control | dose: 5.0 mg/kg/injection, schedule: Q01DX009 (ip), vehicle: saline 105 % of control | dose: 20.0 mg/kg/injection, schedule: Q01DX009 (ip), vehicle: saline 119 % of control | dose: 40.0 mg/kg/injection, schedule: Q01DX009 (ip), vehicle: saline 114 % of control

O=C1[O][Sn]2([Cl])[NH]C1C[S]2 (configuration not stated)
inactive: [1] 100 % of control | [2] 102 % of control

COc1ccc(-c2nc(N)nc(-c3nc(N)nc(-c4ccc(OC)cc4)c3-c3ccc(OC)cc3)c2-c2ccc(OC)cc2)cc1
inactive: [4] 96 % of control | [5] 96 % of control | [6] 99 % of control

O=C(O[C@H]1CCN2C[C@H]3C[C@H](CN4C(=O)CCC[C@H]34)[C@@H]2C1)c1ccc(O)cc1
inactive: dose: 6.25 mg/kg/injection, schedule: Q01DX005 (ip), vehicle: Klucel (hydroxypropylcellulose) (HPC) 103 % of control | dose: 12.5 mg/kg/injection, schedule: Q01DX005 (ip), vehicle: Klucel (hydroxypropylcellulose) (HPC) 106 % of control | dose: 25.0 mg/kg/injection, schedule: Q01DX005 (ip), vehicle: Klucel (hydroxypropylcellulose) (HPC) 104 % of control

O=C(O)CCSCCCCCCCCCCCCSCCC(=O)O
inactive: [1] 95 % of control | [2] 89 % of control | [3] 87 % of control

COc1ccc(S(=O)(=O)F)cc1NC(=O)Oc1ccccc1
inactive: [4] 105 % of control | [5] 113 % of control | [6] 111 % of control

C=C(CN(C)C)C(=O)c1ccc(OC)cc1
inactive: dose: 0.93 mg/kg/injection, schedule: Q01DX005 (ip), vehicle: saline 100 % of control | dose: 1.87 mg/kg/injection, schedule: Q01DX005 (ip), vehicle: saline 113 % of control | dose: 3.75 mg/kg/injection, schedule: Q01DX005 (ip), vehicle: saline 99 % of control

COc1cc(C2C(C#N)=C(C)Nc3nc(N)nc(N)c32)cc(OC)c1OC (configuration not stated)
inactive: [4] 94 % of control | [5] 106 % of control | [6] 104 % of control

O=C(O)C12CC3CC(CC(C3)C1)C2.O=C(O)C12CC3CC(CC(C3)C1)C2.O=C(O)C12CC3CC(CC(C3)C1)C2.O=C(O)C12CC3CC(CC(C3)C1)C2.[Rh].[Rh]
inactive: dose: 12.5 mg/kg/injection, schedule: Q01DX009 (ip), vehicle: saline 94 % of control | dose: 25.0 mg/kg/injection, schedule: Q01DX009 (ip), vehicle: saline 91 % of control and 93 % of control | [7] 100 % of control and 88 % of control | dose: 50.0 mg/kg/injection, schedule: Q01DX009 (ip), vehicle: suspension in saline 101 % of control | [8] 91 % of control | dose: 100.0 mg/kg/injection, schedule: Q01DX009 (ip), vehicle: suspension in saline 120 % of control | dose: 200.0 mg/kg/injection, schedule: Q01DX009 (ip), vehicle: suspension in saline 108 % of control

N#CCNCC#N
inactive: dose: 100.0 mg/kg/injection, schedule: Q04DX002 (ip), vehicle: saline 102 % of control | dose: 200.0 mg/kg/injection, schedule: Q04DX002 (ip), vehicle: saline 103 % of control | dose: 400.0 mg/kg/injection, schedule: Q04DX002 (ip), vehicle: saline 102 % of control

CC(=O)NSCC(NC(=O)OC(C)(C)C)C(=O)O (configuration not stated)
inactive: [9] 97 % of control | [10] 102 % of control | [11] 95 % of control

CCCCN1C(=O)CC(=O)N(c2ccccc2)C1=O
inactive: [7] 99 % of control | [8] 103 % of control | dose: 200.0 mg/kg/injection, schedule: Q01DX009 (ip), vehicle: saline 93 % of control

CC(=O)C/C(=N\NS(=O)(=O)c1cc(Cl)c(Cl)cc1Cl)c1ccc([N+](=O)[O-])cc1
inactive: [12] 99 % of control | [13] 100 % of control | dose: 400.0 mg/kg/injection, schedule: Q04DX003 (ip), vehicle: saline 97 % of control

CCCCCCCCCCCCCCCCOP(=O)(O)OCCCCCCCCCCCCCCCC
inactive: dose: 100.0 mg/kg/injection, schedule: Q04DX003 (ip), vehicle: saline with Tween-80 88 % of control | dose: 200.0 mg/kg/injection, schedule: Q04DX003 (ip), vehicle: saline with Tween-80 90 % of control

NC(=O)C(Cl)Cn1ccnc1 (configuration not stated)
inactive: [14] 103 % of control | [12] 100 % of control | [13] 110 % of control

O=C(NC1CCOC1=O)OCc1ccccc1 (configuration not stated)
inactive: dose: 25.0 mg/kg/injection, schedule: Q01DX009 (ip), vehicle: distilled water + Tween-80 110 % of control | dose: 50.0 mg/kg/injection, schedule: Q01DX009 (ip), vehicle: distilled water + Tween-80 95 % of control | dose: 100.0 mg/kg/injection, schedule: Q01DX009 (ip), vehicle: distilled water + Tween-80 117 % of control | dose: 200.0 mg/kg/injection, schedule: Q01DX009 (ip), vehicle: distilled water + Tween-80 111 % of control

COC1=C(N)C(=O)c2ncccc2C1=O
inactive: dose: 3.12 mg/kg/injection, schedule: Q01DX009 (ip), vehicle: saline with Tween-80 101 % of control | dose: 4.0 mg/kg/injection, schedule: Q01DX009 (ip), vehicle: DMSO 100 % of control | dose: 6.25 mg/kg/injection, schedule: Q01DX009 (ip), vehicle: saline with Tween-80 95 % of control | dose: 8.0 mg/kg/injection, schedule: Q01DX009 (ip), vehicle: DMSO 108 % of control | dose: 12.5 mg/kg/injection, schedule: Q01DX009 (ip), vehicle: saline with Tween-80 94 % of control | dose: 16.0 mg/kg/injection, schedule: Q01DX009 (ip), vehicle: DMSO 102 % of control

COc1ccc(CS(=O)CC(N)C(=O)O)cc1 (configuration not stated)
inactive: dose: 100.0 mg/kg/injection, schedule: Q04DX002 (ip), vehicle: saline with Tween-80 98 % of control | dose: 200.0 mg/kg/injection, schedule: Q04DX002 (ip), vehicle: saline with Tween-80 104 % of control | dose: 400.0 mg/kg/injection, schedule: Q04DX002 (ip), vehicle: saline with Tween-80 86 % of control

COC(=O)C1=COC(C)C2CN3CCc4c([nH]c5cc(OC)c(OC)cc45)C3CC12 (configuration not stated)
inactive: [9] 101 % of control | [10] 102 % of control | [11] 115 % of control

CSc1nc(N)c(C(=O)Nc2cccc3ccccc23)s1
inactive: dose: 50.0 mg/kg/injection, schedule: Q01DX009 (ip), vehicle: Klucel (hydroxypropylcellulose) (HPC) 100 % of control | dose: 100.0 mg/kg/injection, schedule: Q01DX009 (ip), vehicle: Klucel (hydroxypropylcellulose) (HPC) 97 % of control | dose: 200.0 mg/kg/injection, schedule: Q01DX009 (ip), vehicle: Klucel (hydroxypropylcellulose) (HPC) 97 % of control

CC(=O)N1CCCC2=C1CCC2
inactive: dose: 25.0 mg/kg/injection, schedule: Q04DX003 (ip), vehicle: saline 104 % of control | [14] 100 % of control | [12] 94 % of control and 97 % of control

CC(C)Cc1cc(-c2cc(CC(C)C)on2)no1
inactive: dose: 60.0 mg/kg/injection, schedule: Q01DX005 (ip), vehicle: saline 100 % of control | dose: 120.0 mg/kg/injection, schedule: Q01DX005 (ip), vehicle: saline 104 % of control | dose: 240.0 mg/kg/injection, schedule: Q01DX005 (ip), vehicle: saline 100 % of control

Cc1ccc(OP(=O)(Oc2ccc(C)cc2)Oc2ccc(C)cc2)cc1.Cc1ccc(OP(=O)(Oc2ccc(C)cc2)Oc2ccc(C)cc2)cc1.Cc1ccc(OP(=O)(Oc2ccc(C)cc2)Oc2ccc(C)cc2)cc1.Cc1ccc(OP(=O)(Oc2ccc(C)cc2)Oc2ccc(C)cc2)cc1.[Cr+3].[O-][Cl+3]([O-])([O-])O
inactive: dose: 100.0 mg/kg/injection, schedule: Q01DX001 (ip), vehicle: Klucel (hydroxypropylcellulose) (HPC) 100 % of control | dose: 200.0 mg/kg/injection, schedule: Q01DX001 (ip), vehicle: Klucel (hydroxypropylcellulose) (HPC) 96 % of control | dose: 400.0 mg/kg/injection, schedule: Q01DX001 (ip), vehicle: Klucel (hydroxypropylcellulose) (HPC) 89 % of control
